In patent US9758480B2, “1-(cycloalkyl-carbonyl)proline derivative” (SUMITOMO DAINIPPON PHARMA CO., LTD., priority 2012, dated 2017):
Counter-ions that a name gives are not always drawn.

How the values were obtained:
[1] = system: rabbit model with venous thrombus; assay: Rabbit in vivo antithrombotic action evaluation test (venous thrombus model), thrombus weight; settings: i.v.
Source text: A rabbit model with venous thrombus was produced by modifying the report of Wienen et al. (Wienen W. et al., J. Thromb. Haemost. 5:1237-1242 (2007)). A male rabbit (JW, 2-4 kg) was narcotized by inhalation of isoflurane (ISOFLU®, manufactured by DS Pharma Animal Health) (inductive anesthesia: 4%, continuous anesthesia: 1.5% to 2.5%). For intravenous administration of a test agent and blood collection, catheters were inserted into the left femoral vein and the left femoral artery. The left external jugular vein was exposed (2 cm) from a branch of the facial vein, the microvascular branch was then ligated, and a catheter was then inserted into the posterior facial vein. The external jugular vein (2 cm) exposed from each of an anterior facial vein branch and a facial vein branch was ligated with an artery clamp, and blood was then removed from a catheter left in the posterior facial vein. Blood in the blood vessel was washed with a normal saline, and 0.5% polidocanol (manufactured by Sigma) was injected into the blood vessel. It was then left for 5 minutes, so that the occurrence of a disorder in vascular endothelium was provoked. Thereafter, 0.5% polidocanol was removed, the inside of the blood vessel was then washed with a normal saline, and the artery clamp was then removed. The external jugular vein (2 cm) exposed from the facial vein branch, together with an injection needle 21G (manufactured by Terumo), was ligated with a silk thread, so that the inner diameter of the blood vessel was reduced to 0.8 mm. Twenty-five minutes after recirculation of the blood flow, the external jugular vein (2 cm) exposed from the facial vein branch was excised, and the wet weight and dry weight of a thrombus formed in the blood vessel were measured. A test agent or a vehicle was administered to the rabbit 2 minutes before recirculation of the blood flow.

[2] = system: endogenous coagulation pathway; assay: Activated partial thromboplastin time (aPTT) of blood sample in rabbit antithrombotic test; type: in vivo; settings: i.v.
Protocol: In order to measure the activated partial thromboplastin time (aPTT) of the blood sample, which was to be used as an indicator of an endogenous coagulation pathway, 2 minutes after the administration of the test agent or the vehicle, blood was collected, and plasma was then prepared using 3.2% sodium citrate. The prepared plasma was incubated at 37° C. for 7 minutes, and an STA reagent Cephascreen (used for aPTT measurement; manufactured by Roche Diagnostics) was added in an equal amount to the resulting plasma, and the obtained mixture was further incubated for 3 minutes. Thereafter, STA calcium chloride (manufactured by Roche Diagnostics) was added in an equal amount to the resultant, and the time required until coagulation was then measured.

human FXIa = human FXIa (Homo sapiens (Human), UniProt P03951); assay: In vitro activated factor XI (FXIa) inhibition test; type: biochemical; settings: 0.35 μg/mL human FXIa, substrate S-2366 300 μmol/L, 37° C., 10 minutes, OD 405 nm; read-out: FXIa inhibitory activity IC50
human FXIa, sequence (P03951 388-625): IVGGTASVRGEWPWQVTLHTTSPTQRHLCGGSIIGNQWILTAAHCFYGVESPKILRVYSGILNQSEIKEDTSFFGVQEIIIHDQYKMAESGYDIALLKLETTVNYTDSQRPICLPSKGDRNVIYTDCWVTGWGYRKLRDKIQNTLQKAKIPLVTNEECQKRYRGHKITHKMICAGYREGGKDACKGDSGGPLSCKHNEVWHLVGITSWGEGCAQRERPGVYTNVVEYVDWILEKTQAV
human FXIa, sequence (P03951 19-387 partner): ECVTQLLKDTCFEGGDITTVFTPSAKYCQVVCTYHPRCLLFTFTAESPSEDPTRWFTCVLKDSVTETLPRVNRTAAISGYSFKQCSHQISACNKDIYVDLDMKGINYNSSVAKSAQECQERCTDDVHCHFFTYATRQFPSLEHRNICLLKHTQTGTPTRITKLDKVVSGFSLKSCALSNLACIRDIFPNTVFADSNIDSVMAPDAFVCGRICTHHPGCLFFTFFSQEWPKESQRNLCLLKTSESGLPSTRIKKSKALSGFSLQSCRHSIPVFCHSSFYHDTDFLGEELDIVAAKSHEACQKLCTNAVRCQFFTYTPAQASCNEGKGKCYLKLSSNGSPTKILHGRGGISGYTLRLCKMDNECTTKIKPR
Protocol: To the substrate, S-2366 (pyroGlu-Pro-Arg-pNA.HCl) was added to a final concentration of 300 μmol/L. After the reaction had progressed, the absorbance at OD 405 nm was measured.

[3] = Ester metabolism stabilization test: human liver stabilization test; type: in vitro ADME; settings: human liver S9, NADPH, 37° C., 30 minutes
Protocol: A reaction solution prepared by mixing 5 μL of human liver S9 (manufactured by Xenotech, 20 mg/mL), 20 μL of 500 mmol/L Kpi (pH7.4), 40 μL of 5 mmol/L NADPH (manufactured by Oriental Yeast Co., Ltd.) aqueous solution, and 133 μL of ion exchange water was added to 2 μL of a DMSO solution containing 100 μmol/L test substance, and the thus obtained mixture was then incubated at 37° C. for 30 minutes. After completion of the incubation, 600 μL of acetonitrile was added to the reaction solution, so that the metabolic reaction was terminated. The residual percentage of the test substance was measured using LC (LC-20A manufactured by Shimadzu Corporation) and -MS (API4000 manufactured by AB Sciex). • (2) Stabilization in Human Plasma Test

[4] = Ester metabolism stabilization test: stabilization in human plasma test; type: in vitro ADME; settings: 37° C., 30 minutes
Protocol: 198 μL of human plasma (manufactured by Cosmo Bio) was added to 2 μL of a DMSO solution containing 100 μmol/L test substance, and the obtained mixture was then incubated at 37° C. for 30 minutes. After completion of the incubation, 600 μL of acetonitrile was added to the reaction solution, so that the metabolic reaction was terminated. The residual percentage of the test substance was measured using LC (LC-20A manufactured by Shimadzu Corporation) and -MS (API4000 manufactured by AB Sciex).

Row | Structure (SMILES) | IC50 (human FXIa) | Residual percentage (%) Human liver S9 [3] | further results
1 | N[C@H](CF)[C@H]1CC[C@H](C(=O)N2CCC(C3CCCCC3)[C@H]2C(=O)Nc2ccc3oc(C(=O)O)cc3c2)CC1 (single isomer, unassigned) [Example 53] |  |  | Thrombus (% inhibition) ([1]; dose 0.1 mg/kg): 25 % inhibition; Thrombus (% inhibition) ([1]; dose 0.3 mg/kg): 56 % inhibition; Thrombus (% inhibition) ([1]; dose 1.0 mg/kg): 79 % inhibition; Thrombus (% inhibition) ([1]; dose 3.0 mg/kg): 80 % inhibition; aPTT (% vehicle) ([2]; dose 0.1 mg/kg): 103 % vehicle; aPTT (% vehicle) ([2]; dose 0.3 mg/kg): 117 % vehicle; aPTT (% vehicle) ([2]; dose 1.0 mg/kg): 140 % vehicle; aPTT (% vehicle) ([2]; dose 3.0 mg/kg): 166 % vehicle
2 | CN(C(=O)C1C(c2ccccc2)CCN1C(=O)[C@H]1CC[C@H](CN)CC1)c1ccc2[nH]c(C(=O)O)cc2c1 (stereo partly drawn) [Example 5, 5-{cis-1-[trans-4-(Aminomethyl)cyclohexanecarbonyl]-N-methyl-3-phenylpyrrolidine-2-carboxamide}-1H-indole-2-carboxylic acid trifluoroacetate] | 125 nM |  | 
3 | NC[C@H]1CC[C@H](C(=O)N2CCC(c3ccccc3)[C@H]2C(=O)Nc2ccc3[nH]c(C(=O)O)cc3c2)CC1 (stereo partly shown) [Example 23] | 9 nM |  | 
4 | NC(CF)[C@H]1CC[C@H](C(=O)N2CC[C@@H](c3ccc(F)cc3)[C@H]2C(=O)Nc2ccc3[nH]c(C(=O)O)cc3c2)CC1 (stereo partly shown) [Example 38] | 30 nM |  | 
5 | COCCCOC(=O)c1cc2cc(NC(=O)[C@@H]3[C@H](C4CCCCC4)CCN3C(=O)[C@H]3CC[C@H]([C@H](N)CF)CC3)ccc2o1 [Example 82] |  | 5.8% | 
6 | N[C@H](CF)[C@H]1CC[C@H](C(=O)N2CC[C@@H](C3CCCCC3)[C@H]2C(=O)Nc2ccc3[nH]c(C(=O)O)cc3c2)CC1 [Example 99] | 6 nM |  | 
7 | Cc1c(C(=O)O)[nH]c2ccc(NC(=O)[C@@H]3[C@H](C4CCCCC4)CCN3C(=O)[C@H]3CC[C@H]([C@H](N)CF)CC3)cc12 [Example 113] | 145 nM |  | 
8 | CC(OC(=O)OC1CCCCC1)OC(=O)c1cc2cc(NC(=O)[C@@H]3[C@@H](c4ccccc4)CCN3C(=O)[C@H]3CC[C@H]([C@H](N)CF)CC3)ccc2[nH]1 (stereo partly shown) [Example 120] |  | 4.9% | 
9 | CCC(=O)OC(OC(=O)c1cc2cc(NC(=O)[C@@H]3[C@@H](c4ccccc4)CCN3C(=O)[C@H]3CC[C@H]([C@H](N)CF)CC3)ccc2[nH]1)C(C)C (stereo partly shown) [Example 125] |  | 5.6% | 
10 | CC(C)OC(=O)OC(C)OC(=O)c1cc2cc(NC(=O)[C@@H]3[C@H](C4CCCCC4)CCN3C(=O)[C@H]3CC[C@H]([C@H](N)CF)CC3)ccc2[nH]1 (stereo partly shown) [Example 128] |  | 47% | 
11 | N[C@H](CF)[C@H]1CC[C@H](C(=O)N2CC[C@@H](C3CCCCC3)[C@H]2C(=O)Nc2ccc3oc(C(=O)OCC4CCOCC4)cc3c2)CC1 [Example 141] |  | 17% | 
12 | COc1ccc([C@H]2CCN(C(=O)[C@H]3CC[C@H]([C@H](N)CF)CC3)[C@@H]2C(=O)Nc2ccc3[nH]c(C(=O)O)cc3c2)cc1 [Example 170] | 76 nM |  | 
13 | Cc1oc(=O)oc1COC(=O)c1cc2cc(NC(=O)[C@@H]3[C@@H](c4ccccc4)CCN3C(=O)[C@H]3CC[C@H]([C@H](N)CF)CC3)ccc2[nH]1 [Example 171] |  | 18% | 
14 | N[C@H](CF)[C@H]1CC[C@H](C(=O)N2CC[C@H](c3ccc(F)cc3)[C@H]2C(=O)Nc2ccc3[nH]c(C(=O)O)cc3c2)CC1 [Example 178] | 33 nM |  | 
15 | N[C@H](CF)[C@H]1CC[C@H](C(=O)N2CC[C@@H](c3ccccc3)[C@H]2C(=O)Nc2ccc3[nH]c(C(=O)O)c(Cl)c3c2)CC1 [Example 186] | 60 nM |  | 
16 | COC1CCC([C@@H]2CCN(C(=O)[C@H]3CC[C@H]([C@H](N)CF)CC3)[C@@H]2C(=O)Nc2ccc3oc(C(=O)OCC(C)C)cc3c2)CC1 (stereo partly shown) [Example 201] |  | 45% | 
17 | CC(C)C(=O)O[C@@H](C)OC(=O)N[C@H](CF)[C@H]1CC[C@H](C(=O)N2CC[C@@H](C3CCCCC3)[C@H]2C(=O)Nc2ccc(-c3nnn[nH]3)cc2)CC1 [Example 205, (1R)-1-({[(1S)-1-(trans-4-{[(2S,3S)-3-Cyclohexyl-2-{[4-(1H-tetrazol-5-yl)phenyl]carbamoyl}pyrrolidin-1-yl]carbonyl}cyclohexyl)-2-fluoroethyl]carbamoyl}oxy)ethyl 2-methylpropanoate] |  | 3.5% | Residual percentage (%) Human plasma [4]: 60%
